Experimental data from patent publication US20090111836A1, “Angular Pyranocoumarins, Process for Preparation and Uses Thereof” (CITY UNIVERSITY OF HONG KONG, priority 2007, published 2009).
Entries after “also recorded” stand apart in the source; their conditions may differ.

Experiments:
Format in all cases: cell-based, human
[1] = system: KB V1 cells; assay: Reversal of multidrug resistance (fold decrease of anticancer drug IC50), KB V1
Method: Cells and cell culture: cell lines used in the experiments are human hepatoma cell line (HepG2), human leukemia cell line (K562), human epidermoid carcinoma cell line (KB-3-1) and their multidrug resistant sublines HepG2-DR, K562-DR. and KB V1. The culture conditions for all cells are following: at 37° C. and 5% CO2), KB-3-1 and KBV1 were cultured in MEM medium containing 10% fetal bovine serum and 100 U/mL antibiotics; K562, K562-DR, HepG2, HepG2-DR were cultured in RPMI-1640 medium containing 10% fetal bovine serum and 100 U/mL, antibiotics. For maintaining the phenotypic characteristics of multidrug resistance, 1.2 μM and 0.1 μM doxorubicin were respectively added into the mediums of HepG2-DR and K562-DR; 200 ng/mL vinblastine was added into the medium of KBV1. Drug resistant cells were grown in drug free medium for at least 7 days before test.
Each growth inhibition experiment must be repeated three times and results are expressed as mean±standard deviation (SD). Solvents and media were included as blank control.
In SRB assay, cells are inoculated at 5000 cells/well in a 96-well microplate and incubated overnight to let cells adhere. Drug treatment lasts for 72 hours and cells are fixed for 1 hour at 4° C. with 50 μl ice-cold 15% trichloroacetic acid and washed with triple-distilled water 5 times. Cellular protein is stained by adding 50 μl of 0.4% SRB in 1% acetic acid for 10 minutes, rinsed with 1% acetic acid 5 times and air-dried. The protein-bound dye is dissolved in 100 μl per well of 10 mM Tris base (pH 10.5). The color intensity of SRB, which positively correlate to cell number in preliminary experiments, is estimated at OD 515 nm.
1. Materials and methods: the same with I.
To evaluate the multidrug resistance reversing ability of (±)-Praeruptorin A derivatives, IC50 values of anticancer drugs in the presence and absence of cis-DMDCK, cis-DMDBK, trans-DMDCK, or trans-DMDBK at certain concentration were determined in HepG2-DR, K562-DR and KB V1 cells. The fold decrease of IC50 value of an anticancer drug in certain cell line achieved by a test compound is calculated (fold decrease=IC50 of an anti-tumor drug alone/IC50 of the anti-tumor drug in combination with the test compound) and is used for evaluating the ability of the test compound to reduce drug resistance. The larger the fold decrease value is, the stronger its ability to reverse drug resistance is. The results were average values of three repetitive tests. Verapamil (P-glycoprotein modulator) is the positive control.

[2] = system: P-gp; assay: Immunoblotting analysis of P-gp expression, K562-DR; conditions: 4 μM, 72 hours
Method: Immunoblotting analysis of P-gp expression: cells were treated with 4 μM of cis-DMDCK, 4 μM of cis-DMDBK, 4 μM of trans-DMDCK, or 4 μM of trans-DMDBK for 72 hours. Treated cells were collected and mixed well in ice-cold lysis buffer (50 mM Tris pH7.4, 100 mM NaCl, 2 mM EDTA, 1% sodium deoxycholate, 0.1% SDS, 1% triton X-100, 2 mM PMSF, 1% aprotinin) for 30 minutes and then centrifuged to get the total protein. Protein concentration was determined using Bradford assay. In this experiment, 50 μg total protein was separated by 8% SDS-PAGE and electro-transferred to nitrocellulose membranes. The membrane was blocked by 5% skim milk/0.1% Tween-20/TBS (10 mM Tris pH7.5, 100 mM NaCl), and then incubated with anti-P-pg antibody for 1 hour, followed by horseradish-peroxidase-conjugated secondary antibody for another 1 hour. Protein bands were detected by the ECL method.

[3] = system: HepG2-DR cells; assay: Cell cycle distribution by flow cytometry (doxorubicin-induced G2/M arrest), HepG2-DR; conditions: HepG2-DR; for Cell cycle distribution, G0/G1 / Cell cycle distribution, G2/M / Cell cycle distribution, S / Cell cycle distribution, SubG1: 48 h; for Concentration of test compound that reduced the effective doxorubicin concentration (G2/M arrest) from 50 to 1 μM: combination with doxorubicin
Method: 1.2 Instruments: FACSCAN flow cytometry (Becton Dickinson Immunocytometry Systems, San Jose, Calif.), the obtained data were analyzed using the software of Macintosh CellQuest.
1.3 Cell lines: HepG2, HepG2-DR.
1.4 Drug treatment: HepG2 and HepG2-DR cells were respectively treated with each of cis-DMDCK, cis-DMDBK, trans-DMDCK, trans-DMDBK and doxorubicin for 48 hours, or treated respectively with the combination of doxorubicin and one of cis-DMDCK, cis-DMDBK, trans-DMDCK, trans-DMDBK for 48 hours.
1.5 Treatment and detection of sample cells: after washed twice by ice-cold PBS, the cells were fixed with 70% ethanol at −20° C. overnight. The fixed cells were washed by PBS once and resuspended in 1 mL of PBS containing 100 μg/mL RNAase A and incubated at 37° C. for 30 minutes. Finally, propidium iodide solution (final concentration is 40 μg/mL,) was added to bind with DNA and incubated at room temperature for 5-10 minutes. Cells were analyzed by FACSCAN flow cytometry immediately.

[4] = 1 μM doxorubicin + 0.5 μM test compound
[5] = 1 μM doxorubicin + 1 μM test compound
[6] = 1 μM doxorubicin + 2 μM test compound
[7] = 1 μM doxorubicin + 4 μM test compound

SMILES | Reversing parameter: fold decrease of IC50, verapamil ([1]; KB V1, 4 μM test compound) [fold] | Reversing parameter: fold decrease of IC50 of Doxorubicin ([1]; KB V1, 4 μM test compound) [fold] | Reversing parameter: fold decrease of IC50 of Puromycin ([1]; KB V1, 4 μM test compound) [fold] | Reversing parameter: fold decrease of IC50 of Vinblastine ([1]; KB V1, 4 μM test compound) [fold] | Change in P-gp (MDR1) expression level [2] | Cell cycle distribution, G0/G1 [3, 5] [%] | Cell cycle distribution, G2/M [3, 5] [%] | Cell cycle distribution, S [3, 5] [%] | Cell cycle distribution, SubG1 [3, 5] [%] | Cell cycle distribution, G0/G1 [3, 6] [%] | Cell cycle distribution, G2/M [3, 6] [%] | Cell cycle distribution, S [3, 6] [%] | Cell cycle distribution, SubG1 [3, 6] [%] | Effect on cell cycle by itself ([3]; 4 μM alone) | Cell cycle distribution, G0/G1 ([3]; 4 μM alone) [%] | Cell cycle distribution, G2/M ([3]; 4 μM alone) [%] | Cell cycle distribution, S ([3]; 4 μM alone) [%] | Cell cycle distribution, SubG1 ([3]; 4 μM alone) [%] | Concentration of test compound that reduced the effective doxorubicin concentration (G2/M arrest) from 50 to 1 μM [3] [µM] | Cell cycle distribution, G0/G1 [3, 7] [%] | other results
COc1ccc(/C=C/C(=O)O[C@@H]2c3c(ccc4ccc(=O)oc34)OC(C)(C)[C@@H]2OC(=O)/C=C/c2ccc(OC)c(OC)c2)cc1OC (racemic) [cis-DMDCK, (±)-3′-O,4′-O-bis(3,4-dimethoxycinnamoyl)-cis-khellactone] | 499.8 ± 202.8 | 50.0 ± 19.1 | 131.0 ± 7.1 | 331.2 ± 155.4 | no detectable alteration; also recorded: not observed | 4.39 ± 1.50 | 81.42 ± 6.02 | 5.36 ± 3.13 | 5.59 ± 4.35 | 4.51 ± 0.45 | 77.12 ± 3.36 | 8.87 ± 4.04 | 6.40 ± 5.54 | no effect | 52.10 ± 0.61 | 33.20 ± 2.05 | 8.38 ± 4.24 | 2.25 ± 0.51 | 1 |  | Reversing parameter: fold decrease of IC50, verapamil ([1]; KB V1, 1 μM test compound): 9.0 ± 9.7 fold; Reversing parameter: fold decrease of IC50 of Doxorubicin ([1]; KB V1, 1 μM test compound): 8.9 ± 2.3 fold; Reversing parameter: fold decrease of IC50 of Puromycin ([1]; KB V1, 1 μM test compound): 37.0 ± 14.4 fold; Reversing parameter: fold decrease of IC50 of Vinblastine ([1]; KB V1, 1 μM test compound): 2.3 ± 0.8 fold; Reversing parameter: fold decrease of IC50, verapamil ([1]; KB V1, 2 μM test compound): 128.2 ± 53.8 fold; Reversing parameter: fold decrease of IC50 of Doxorubicin ([1]; KB V1, 2 μM test compound): 19.1 ± 11.1 fold; Reversing parameter: fold decrease of IC50 of Puromycin ([1]; KB V1, 2 μM test compound): 61.4 ± 31.3 fold; Reversing parameter: fold decrease of IC50 of Vinblastine ([1]; KB V1, 2 μM test compound): 115.0 ± 17.6 fold; Cell cycle distribution, G0/G1 [3, 4]: 8.46 ± 1.63%; Cell cycle distribution, G2/M [3, 4]: 79.79 ± 4.56%; Cell cycle distribution, S [3, 4]: 6.52 ± 1.76%; Cell cycle distribution, SubG1 [3, 4]: 4.35 ± 0.59%
COc1ccc(C(=O)O[C@@H]2[C@@H](OC(=O)c3ccc(OC)c(OC)c3)c3c(ccc4ccc(=O)oc34)OC2(C)C)cc1OC (racemic) [trans-DMDBK, (±)-3′-O,4′-O-bis(3,4-dimethoxybenzoyl)-trans-khellactone] | 2.2 ± 0.4 | 2.7 ± 0.9 | 8.4 ± 4.2 | 1.4 ± 0.2 | no detectable alteration; also recorded: not observed | 34.60 ± 2.58 | 49.53 ± 0.69 | 7.61 ± 3.69 | 3.31 ± 0.89 | 17.56 ± 2.20 | 67.89 ± 1.19 | 7.03 ± 2.34 | 5.30 ± 2.52 | no effect | 49.57 ± 0.15 | 34.41 ± 3.70 | 6.17 ± 1.55 | 1.33 ± 0.24 | 4 | 5.37 ± 1.06 | Cell cycle distribution, G2/M [3, 7]: 81.56 ± 2.62%; Cell cycle distribution, S [3, 7]: 4.71 ± 3.62%; Cell cycle distribution, SubG1 [3, 7]: 5.11 ± 2.84%
COc1ccc(/C=C/C(=O)O[C@@H]2[C@@H](OC(=O)/C=C/c3ccc(OC)c(OC)c3)c3c(ccc4ccc(=O)oc34)OC2(C)C)cc1OC (racemic) [trans-DMDCK, (±)-3′-O,4′-O-bis(3,4-dimethoxycinnamoyl)-trans-khellactone] | 6.0 ± 3.1 |  | 15.3 ± 2.5 |  | no detectable alteration; also recorded: not observed | 34.29 ± 0.21 | 48.46 ± 2.52 | 8.80 ± 3.64 | 3.94 ± 0.77 | 21.21 ± 1.48 | 64.06 ± 3.56 | 5.79 ± 4.05 | 6.55 ± 0.12 | no effect | 47.46 ± 0.55 | 33.42 ± 1.98 | 7.97 ± 1.05 | 2.07 ± 0.06 | 4 | 6.03 ± 0.91 | Cell cycle distribution, G2/M [3, 7]: 79.52 ± 0.66%; Cell cycle distribution, S [3, 7]: 5.70 ± 4.20%; Cell cycle distribution, SubG1 [3, 7]: 4.29 ± 1.99%
